For 14 compounds, Activity, IC50 and inhibition results are on record in ChEMBL document CHEMBL3259515, “Further studies on ethyl 5-hydroxy-indole-3-carboxylate scaffold: design, synthesis and evaluation of 2-phenylthiomethyl-indole derivatives as efficient inhibitors of human 5-lipoxygenase” (Eur J Med Chem, 2014).

The target of experiment [1] is T1, Polyunsaturated fatty acid lipoxygenase ALOX15 (Homo sapiens) (UniProt P16050).
T1 sequence (whole entry): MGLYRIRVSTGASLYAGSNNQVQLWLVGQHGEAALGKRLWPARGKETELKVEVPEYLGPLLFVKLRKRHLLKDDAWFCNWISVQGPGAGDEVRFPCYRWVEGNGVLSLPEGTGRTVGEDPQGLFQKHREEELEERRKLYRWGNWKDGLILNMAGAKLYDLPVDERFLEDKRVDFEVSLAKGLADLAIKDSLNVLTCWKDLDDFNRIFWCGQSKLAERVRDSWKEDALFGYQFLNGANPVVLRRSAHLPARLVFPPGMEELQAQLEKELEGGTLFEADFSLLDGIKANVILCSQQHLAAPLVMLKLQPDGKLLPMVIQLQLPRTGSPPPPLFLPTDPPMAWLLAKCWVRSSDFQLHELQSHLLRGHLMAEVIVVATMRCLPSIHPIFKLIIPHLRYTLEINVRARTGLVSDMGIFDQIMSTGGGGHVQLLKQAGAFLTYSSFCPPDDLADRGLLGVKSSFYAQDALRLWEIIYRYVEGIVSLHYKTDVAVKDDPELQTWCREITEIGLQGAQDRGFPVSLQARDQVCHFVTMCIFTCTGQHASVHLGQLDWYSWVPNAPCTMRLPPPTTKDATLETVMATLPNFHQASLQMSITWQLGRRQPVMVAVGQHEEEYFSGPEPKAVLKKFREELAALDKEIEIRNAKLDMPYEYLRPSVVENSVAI
Put plainly: Inhibition of 15-LO-mediated 15-H(P)ETE production in human polymorphonuclear leukocytes assessed as remaining activity preincubated at 10 uM for 15 mins by HPLC analysis. It counts as cell-based.

Experiment [2] concerns the target T2, Polyunsaturated fatty acid 5-lipoxygenase (Homo sapiens, UniProt P09917).
T2 sequence (P09917 whole entry): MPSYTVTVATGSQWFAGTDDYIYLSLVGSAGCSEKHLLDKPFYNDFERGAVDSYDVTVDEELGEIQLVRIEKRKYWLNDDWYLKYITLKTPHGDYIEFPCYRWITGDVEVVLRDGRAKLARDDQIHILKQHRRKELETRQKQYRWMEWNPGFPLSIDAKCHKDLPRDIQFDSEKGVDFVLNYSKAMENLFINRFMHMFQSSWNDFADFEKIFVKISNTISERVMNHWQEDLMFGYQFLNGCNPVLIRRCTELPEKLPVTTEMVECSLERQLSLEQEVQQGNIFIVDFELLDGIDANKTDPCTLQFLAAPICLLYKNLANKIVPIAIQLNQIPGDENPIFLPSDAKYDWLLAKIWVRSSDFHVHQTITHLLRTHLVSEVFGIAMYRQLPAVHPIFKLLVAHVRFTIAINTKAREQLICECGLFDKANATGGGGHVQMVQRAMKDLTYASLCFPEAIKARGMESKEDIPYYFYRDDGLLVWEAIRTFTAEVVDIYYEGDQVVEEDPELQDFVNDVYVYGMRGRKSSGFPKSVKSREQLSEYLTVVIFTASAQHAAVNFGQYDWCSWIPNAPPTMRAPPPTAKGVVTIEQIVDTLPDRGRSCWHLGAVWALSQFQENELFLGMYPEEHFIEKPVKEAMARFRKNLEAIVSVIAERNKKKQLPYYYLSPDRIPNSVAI
As to the kind of experiment: Inhibition of human recombinant 5-LO expressed in Escherichia coli BL21 using arachidonic acid as substrate preincubated for 5 to 10 mins by HPLC analysis.

For experiment [3], the target named is T3, Polyunsaturated fatty acid lipoxygenase ALOX12 (Homo sapiens) (UniProt P18054).
T3 sequence (whole entry): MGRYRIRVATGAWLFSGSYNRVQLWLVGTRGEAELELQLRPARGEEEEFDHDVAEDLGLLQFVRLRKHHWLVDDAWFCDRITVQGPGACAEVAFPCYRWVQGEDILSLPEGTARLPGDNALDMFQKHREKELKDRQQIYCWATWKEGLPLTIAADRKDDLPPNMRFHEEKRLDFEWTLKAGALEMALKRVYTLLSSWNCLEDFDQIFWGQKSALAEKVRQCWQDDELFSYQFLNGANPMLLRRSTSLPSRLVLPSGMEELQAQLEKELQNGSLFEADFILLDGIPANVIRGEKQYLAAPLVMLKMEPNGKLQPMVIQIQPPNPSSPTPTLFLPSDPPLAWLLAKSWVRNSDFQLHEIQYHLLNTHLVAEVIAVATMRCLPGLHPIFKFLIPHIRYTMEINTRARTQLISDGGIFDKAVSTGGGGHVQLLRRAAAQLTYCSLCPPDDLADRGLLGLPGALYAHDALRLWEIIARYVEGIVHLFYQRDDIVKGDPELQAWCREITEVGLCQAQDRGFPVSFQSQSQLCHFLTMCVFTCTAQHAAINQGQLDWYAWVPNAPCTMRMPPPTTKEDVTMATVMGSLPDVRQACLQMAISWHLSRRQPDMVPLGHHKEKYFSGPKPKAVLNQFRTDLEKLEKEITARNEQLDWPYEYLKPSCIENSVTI
As to the kind of experiment: Inhibition of 12-LO-mediated 12-H(P)ETE production in human polymorphonuclear leukocytes assessed as remaining activity preincubated at 10 uM for 15 mins by HPLC analysis. It counts as cell-based.

For experiment [4], the target named is T2, Polyunsaturated fatty acid 5-lipoxygenase. As to the kind of experiment: Inhibition of 5-LO in human polymorphonuclear leukocytes assessed as inhibition of LTB4 production from arachidonic acid preincubated for 15 mins by HPLC analysis. Format: cell-based.
Experiment [5] deals with T4, Prostaglandin G/H synthase 2 (Homo sapiens) (UniProt P35354).
T4 sequence (whole entry): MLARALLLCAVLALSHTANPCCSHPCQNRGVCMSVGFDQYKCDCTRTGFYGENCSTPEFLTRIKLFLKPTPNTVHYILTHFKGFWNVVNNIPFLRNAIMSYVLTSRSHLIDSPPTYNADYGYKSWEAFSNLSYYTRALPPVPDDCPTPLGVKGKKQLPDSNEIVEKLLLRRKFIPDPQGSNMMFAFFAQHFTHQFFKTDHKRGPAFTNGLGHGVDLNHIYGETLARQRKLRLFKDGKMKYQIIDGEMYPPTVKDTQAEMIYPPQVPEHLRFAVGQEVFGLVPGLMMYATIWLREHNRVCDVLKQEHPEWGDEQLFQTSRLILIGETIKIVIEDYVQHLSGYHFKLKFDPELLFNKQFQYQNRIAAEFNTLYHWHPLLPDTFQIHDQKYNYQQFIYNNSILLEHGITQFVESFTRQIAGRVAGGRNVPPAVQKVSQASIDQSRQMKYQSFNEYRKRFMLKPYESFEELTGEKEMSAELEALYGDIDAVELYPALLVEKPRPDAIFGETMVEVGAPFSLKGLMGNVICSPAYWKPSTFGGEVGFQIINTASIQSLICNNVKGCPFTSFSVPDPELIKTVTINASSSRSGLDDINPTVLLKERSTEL
Put plainly: Inhibition of human recombinant COX2 preincubated for 5 mins by HPLC analysis.

For experiment [6], the target named is T5, Prostaglandin G/H synthase 1 (Ovis aries) (UniProt P05979).
T5 sequence (whole entry): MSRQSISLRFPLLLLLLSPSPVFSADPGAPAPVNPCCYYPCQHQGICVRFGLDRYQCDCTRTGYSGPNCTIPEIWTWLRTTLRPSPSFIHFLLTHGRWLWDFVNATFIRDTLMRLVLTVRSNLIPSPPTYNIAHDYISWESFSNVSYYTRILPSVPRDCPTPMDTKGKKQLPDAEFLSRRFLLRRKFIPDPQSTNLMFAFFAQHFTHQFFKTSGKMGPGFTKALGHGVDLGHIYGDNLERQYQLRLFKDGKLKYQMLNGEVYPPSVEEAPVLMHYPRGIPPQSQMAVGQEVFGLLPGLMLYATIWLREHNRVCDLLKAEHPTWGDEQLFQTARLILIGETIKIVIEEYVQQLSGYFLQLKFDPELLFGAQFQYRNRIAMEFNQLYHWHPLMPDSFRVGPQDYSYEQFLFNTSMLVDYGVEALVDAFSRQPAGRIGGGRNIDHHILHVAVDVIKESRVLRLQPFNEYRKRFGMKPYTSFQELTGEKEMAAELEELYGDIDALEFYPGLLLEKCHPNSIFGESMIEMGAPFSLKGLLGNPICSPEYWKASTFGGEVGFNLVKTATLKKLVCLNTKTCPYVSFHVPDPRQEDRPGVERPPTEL
As to the kind of experiment: Inhibition of purified ovine COX1 preincubated for 5 mins by HPLC analysis.

In experiment [7] the target is T6, Polyunsaturated fatty acid lipoxygenase ALOX15 (Homo sapiens, UniProt P16050).
T6 sequence (P16050 whole entry): T1 sequence (whole entry)
As to the kind of experiment: Inhibition of 15-LO in human polymorphonuclear leukocytes assessed as inhibition of 15-H(P)ETE production from arachidonic acid preincubated for 15 mins by HPLC analysis. Format: cell-based.

Active and inactive are the calls of the source. The rule behind the calls is not given here. Some results are limits rather than exact numbers.

Usually IC50 stands for the concentration that gives 50% inhibition. Regarding `CCOC(=O)c1c(CSc2ccc(C(F)(F)F)cc2)n(C)c2ccc(O)cc12`, the Activity worked out at 114% in experiment [1] and 102% in experiment [3]. For the same compound, the IC50 in experiment [2] is 4200 nM; in experiment [4] it was > 10000 nM.

Regarding `CCOC(=O)c1c(CSc2c(C)cccc2C)n(C)c2ccc(O)cc12`, the Activity was 125% in experiment [1] and 94.1% in experiment [3]. Further, the results for the IC50 in experiment [2] and in experiment [4] were 800 nM and 1200 nM, respectively.

Consider `CCOC(=O)c1c(CSc2ccccc2OC)n(C)c2ccc(O)cc12`, for which the Activity in experiment [1] turned out to be 136%; in experiment [3], 108%. Further, the half-maximal inhibitory concentration (IC50) was found to be 2900 nM in experiment [2] and 5100 nM in experiment [4].

On to `CCOC(=O)c1c(CSc2ccc(OC)cc2)n(C)c2ccc(O)cc12`, for which the Activity in experiment [1] worked out at 128%; in experiment [3], 92.1%. For the same compound, the IC50 in experiment [2] came out at 2300 nM; in experiment [4] it was 3100 nM.

`CCOC(=O)c1c(CSc2ccccc2C(F)(F)F)n(C)c2ccc(O)cc12`: the Activity is 126% in experiment [1] and 104% in experiment [3]. Further, the IC50 in experiment [2] was 800 nM; in experiment [4], 1200 nM.

Take `CCOC(=O)c1c(CSc2ccc(F)cc2F)n(C)c2ccc(O)cc12`: the Activity in experiment [1] worked out at 102%; in experiment [3] it was 91.4%. In addition, the values for the half-inhibitory concentration (IC50) in experiment [2] and in experiment [4] were 3200 nM and 6800 nM, respectively.

Turning to `N#C/C(=C\c1ccc(O)c(O)c1)C(=O)OC/C=C/c1ccccc1`, the Activity in experiment [1] came out at 11.1%; in experiment [3] it was 5.6%.

For the compound `CCOC(=O)c1c(CSc2c(Cl)cccc2Cl)n(C)c2ccc(O)cc12`, the Activity in experiment [1] amounted to 136%; in experiment [3] it was 103%. The inhibition entry in experiment [5] and in experiment [6] was “inactive” in each case. Also, the IC50 in experiment [2] came to 800 nM; in experiment [4], 900 nM.

Take `CCOC(=O)c1c(CSc2c(C)cc(C)cc2C)n(C)c2ccc(O)cc12`: the Activity is 33% in experiment [1] and 86.5% in experiment [3]. The IC50 in experiment [7] came to 8200 nM; in experiment [2] it was 700 nM; in experiment [4], 230 nM. Also, the inhibition entry in experiment [5] and in experiment [6] was “inactive” in each case.

For `CCOC(=O)c1c(CSc2cc(C)cc(C)c2)n(C)c2ccc(O)cc12`, the results for the Activity in experiment [1] and in experiment [3] were 150% and 107%, respectively. Besides, the IC50 in experiment [2] came to 1800 nM; in experiment [4], 2700 nM.

Consider `CCOC(=O)c1c(CSc2ccc(OC(F)(F)F)cc2)n(C)c2ccc(O)cc12`, for which the results for the Activity in experiment [1] and in experiment [3] were 107% and 94.1%, respectively. Also, the IC50 was found to be 900 nM in experiment [2] and 2100 nM in experiment [4].

As to `CCOC(=O)c1c(CSc2ccccc2)n(C)c2ccc(O)cc12`, the figures for the Activity in experiment [1] and in experiment [3] were 130% and 92.4%, respectively. For the same compound, the values for the 50% inhibitory concentration (IC50) in experiment [2] and in experiment [4] were 5700 nM and 2400 nM, respectively.

Consider `CCOC(=O)c1c(CSc2cccc(Cl)c2)n(C)c2ccc(O)cc12`, for which the Activity in experiment [1] is 114%; in experiment [3], 92.9%. Moreover, the values for the half-inhibitory concentration (IC50) in experiment [2] and in experiment [4] were 3800 nM and > 10000 nM, respectively.

For the compound `CCOC(=O)c1c(CSc2ccc(F)cc2)n(C)c2ccc(O)cc12`, the Activity in experiment [1] came out at 120%; in experiment [3], 100%. The IC50 in experiment [2] was 5000 nM; in experiment [4], 9100 nM.
